Measured values taken from patent US4515942A, “Antibiotics KA-6606 XII, XIII, XV, XVI and XVII” (Kowa Company, Ltd., priority 1980, dated 1985).

Key:
[1] = test system: Pseudomonas aeruginosa NCTC 10490; test: disc plate method (Table 2); assay type: cell-based; details: paper disc 8 mm; for zone of inhibition at 10000 µg/mL / zone of inhibition at 1000 µg/mL: Pseudomonas aeruginosa, read-out: Inhibition zone (diameter); for zone of inhibition at 10000 µg/mL: NCTC10490, 10 mg/ml; for zone of inhibition at 1000 µg/mL: NCTC10490, 1 mg/ml; for Inhibition zone (diameter): 1 mg/ml
From the text: (§1) Tables 1 and 2 show the antibacterial spectra of the antibiotics KA-6606 VII to KA-6606 XVII against various bacteria, determined by the disc plate method, in comparison with the KA-6606 II substance. Each of the chemicals is used as impregnated in a paper disc having a diameter of 8 mm.

Serratia marcescens NHL = test: disc plate method (Table 2); assay type: cell-based; details: paper disc 8 mm; for zone of inhibition at 10000 µg/mL / zone of inhibition at 1000 µg/mL: Serratia marcescens, read-out: Inhibition zone (diameter); for zone of inhibition at 10000 µg/mL: 10 mg/ml; for zone of inhibition at 1000 µg/mL / Inhibition zone (diameter): 1 mg/ml
From the text: as §1

[2] = test system: Escherichia coli NIHJ JC-2; test: disc plate method (Table 2); assay type: cell-based; details: paper disc 8 mm; for zone of inhibition at 10000 µg/mL / zone of inhibition at 1000 µg/mL: Escherichia coli, read-out: Inhibition zone (diameter); for zone of inhibition at 10000 µg/mL: NIHJJC2, 10 mg/ml; for zone of inhibition at 1000 µg/mL: NIHJJC2, 1 mg/ml; for Inhibition zone (diameter): 1 mg/ml
From the text: as §1

Proteus vulgaris OX-107 = test: disc plate method (Table 2); assay type: cell-based; details: paper disc 8 mm; for zone of inhibition at 10000 µg/mL / zone of inhibition at 1000 µg/mL: Proteus vulgaris, read-out: Inhibition zone (diameter); for zone of inhibition at 10000 µg/mL: OX107, 10 mg/ml; for zone of inhibition at 1000 µg/mL: OX107, 1 mg/ml; for Inhibition zone (diameter): 1 mg/ml
From the text: as §1

[3] = test system: Bacillus subtilis ATCC 6633; test: disc plate method (Table 2); assay type: cell-based; details: paper disc 8 mm; for zone of inhibition at 10000 µg/mL / zone of inhibition at 1000 µg/mL: Bacillus subtilis, read-out: Inhibition zone (diameter); for zone of inhibition at 10000 µg/mL: ATCC6633, 10 mg/ml, Bacillus subtilis ATCC 6633; for zone of inhibition at 1000 µg/mL: ATCC6633, 1 mg/ml; for zone of inhibition at 1000 µg/mL / Inhibition zone (diameter): Bacillus subtilis ATCC 6633 (Table 2); for Inhibition zone (diameter): 1 mg/ml
From the text: as §1

[4] = test system: Staphylococcus aureus 209D-JC-1; test: disc plate method (Table 2); assay type: cell-based; details: paper disc 8 mm; for zone of inhibition at 10000 µg/mL / zone of inhibition at 1000 µg/mL: Staphylococcus aureus, read-out: Inhibition zone (diameter); for zone of inhibition at 10000 µg/mL: 209DJC1, 10 mg/ml; for zone of inhibition at 1000 µg/mL: 209DJC1, 1 mg/ml; for Inhibition zone (diameter): 1 mg/ml
From the text: as §1

Stability = assay type: physicochemical; details: pH range in which stable
Solubility in solvents = assay type: physicochemical
Proteus inconstans [5] = test: disc plate method (Table 2); assay type: cell-based; details: 1 mg/ml, paper disc 8 mm, Proteus inconstans (Table 2); for zone of inhibition at 1000 µg/mL: Providencia alcalifaciens, read-out: Inhibition zone (diameter)
From the text: as §1

[6] = test system: Klebsiella pneumoniae PCI 602; test: disc plate method (Table 2); assay type: cell-based; details: paper disc 8 mm; for zone of inhibition at 1000 µg/mL: Klebsiella pneumoniae, PCI602, 1 mg/ml, read-out: Inhibition zone (diameter); for Inhibition zone (diameter): 1 mg/ml
From the text: as §1

Pseudomonas aeruginosa = test: disc plate method (Table 1); assay type: cell-based; details: 1 mg/ml, paper disc 8 mm, read-out: Inhibition zone (diameter)
From the text: as §1

Serratia marcescens = test: disc plate method (Table 1); assay type: cell-based; details: 1 mg/ml, paper disc 8 mm
From the text: as §1

Klebsiella pneumoniae = test: disc plate method (Table 1); assay type: cell-based; details: 1 mg/ml, paper disc 8 mm
From the text: as §1

Proteus inconstans [7] = test: disc plate method (Table 1); assay type: cell-based; details: 1 mg/ml; paper disc 8 mm; Proteus inconstans (Table 1)
From the text: as §1

[8] = test system: Staphylococcus aureus 209P; test: disc plate method (Table 1); assay type: cell-based; details: 1 mg/ml, paper disc 8 mm
From the text: as §1

Escherichia coli NIHJ = test: disc plate method (Table 1); assay type: cell-based; details: 1 mg/ml, paper disc 8 mm
From the text: as §1

[9] = test system: Bacillus subtilis ATCC 6633; test: disc plate method (Table 1); assay type: cell-based; details: paper disc 8 mm, Bacillus subtilis ATCC 6633 (Table 1)
From the text: as §1

Proteus vulgaria = test: disc plate method (Table 1); assay type: cell-based; details: 1 mg/ml, paper disc 8 mm
From the text: as §1

[10] = read-out: Inhibition zone (diameter)

Compound	Stability (stable at pH) (Stability)	Solubility in solvents: chloroform (Solubility in solvents)	Solubility in solvents: ethyl acetate (Solubility in solvents)	Solubility in solvents: water (Solubility in solvents)	zone of inhibition at 1000 µg/mL [1] [mm]	zone of inhibition at 1000 µg/mL (Serratia marcescens NHL) [mm]	zone of inhibition at 1000 µg/mL (Proteus inconstans [5]) [mm]	zone of inhibition at 1000 µg/mL [2] [mm]	zone of inhibition at 1000 µg/mL (Proteus vulgaris OX-107) [mm]	zone of inhibition at 1000 µg/mL [6] [mm]	zone of inhibition at 1000 µg/mL [3] [mm]	zone of inhibition at 1000 µg/mL [4] [mm]	Solubility in solvents: methanol (Solubility in solvents)	also measured
CNC1C(O)CC(N)C(OC2OC(CO)C(O)C(O)C2N)C1O (centres unmarked) [KA-6606 XII]	2-10 pH	Insoluble	Insoluble	Easily soluble	–	–	–	–	–	–	–	–	–	zone of inhibition at 10000 µg/mL [1]: 9.3 mm; zone of inhibition at 10000 µg/mL (Serratia marcescens NHL): 9.8 mm; zone of inhibition at 10000 µg/mL [2]: 9.2 mm; zone of inhibition at 10000 µg/mL (Proteus vulgaris OX-107): 9.3 mm; zone of inhibition at 10000 µg/mL [3]: 17.7 mm; zone of inhibition at 10000 µg/mL [4]: 16.8 mm
CNC1C(OC)CC(N)C(OC2OC(CN)=CCC2N)C1O (centres unmarked) [KA-6606 XV]	2-10 pH	Insoluble	Insoluble	Easily soluble	16.2	18.2	9	18.5	16.4	18.6	23.1	23.3	Easily soluble	–
CNC1C(OC)CC(N)C(OC2OC(CN)CCC2N)C1O (centres unmarked) [KA-6606 XIV]	2-10 pH	Insoluble	Insoluble	Easily soluble	9.2	13.5	8.5	11.8	12	9.5	19.1	17.1	Easily soluble	–
CNC1C(OC)CC(NC(N)=O)C(OC2OC(C(C)N)CCC2N)C1O (centres unmarked) [KA-6606 XVII]	2-10 pH	Insoluble	Insoluble	Easily soluble	–	–	–	–	–	–	–	–	Easily soluble	zone of inhibition at 10000 µg/mL [1]: 10.1 mm; zone of inhibition at 10000 µg/mL (Serratia marcescens NHL): 13.6 mm; zone of inhibition at 10000 µg/mL [2]: 10.7 mm; zone of inhibition at 10000 µg/mL (Proteus vulgaris OX-107): 16.8 mm; zone of inhibition at 10000 µg/mL [3]: 17.3 mm; zone of inhibition at 10000 µg/mL [4]: 14.2 mm
CNC1C(OC)CC(N)C(OC2OC(C(C)N)=CCC2N)C1O (centres unmarked) [KA-6606 XIII]	2-10 pH	Insoluble	Insoluble	Easily soluble	14.8	18.5	14.3	18.4	18.5	17	22.6	22	Easily soluble	–
CNC1C(O)CC(N)C(OC2OC(C(C)N)CCC2N)C1O (centres unmarked) [KA-6606 X]	2-10 pH	Insoluble	Insoluble	Easily soluble	–	–	–	–	–	–	–	–	Easily soluble	Inhibition zone (diameter) [1]: 13.8 mm; Inhibition zone (diameter) (Serratia marcescens NHL): 16.5 mm; Inhibition zone (diameter) (Proteus inconstans [5]): 11.9 mm; Inhibition zone (diameter) [2]: 16.3 mm; Inhibition zone (diameter) (Proteus vulgaris OX-107): 16.6 mm; Inhibition zone (diameter) [6]: 17.4 mm; Inhibition zone (diameter) [3]: 22.5 mm; Inhibition zone (diameter) [4]: 23.3 mm
CNC1C(OC)CC(N)C(OC2OC(C(C)N)CCC2NC(N)=O)C1O (centres unmarked) [KA-6606 XVI]	2-10 pH	Insoluble	Insoluble	Easily soluble	11.8	16.3	8.9	16.2	15.8	8.5	20.6	16.3	Easily soluble	–
CNC1C(OC)CC(N)C(OC2OC(C(C)N)CCC2N)C1O (centres unmarked) [KA-6606 VIII]	2-10 pH	Insoluble	Insoluble	Easily soluble	–	–	–	–	–	–	–	–	Easily soluble	zone of inhibition at 1000 µg/mL (Pseudomonas aeruginosa): 17.3 mm; Inhibition zone (diameter) (Serratia marcescens): 19.7 mm; Inhibition zone (diameter) (Klebsiella pneumoniae): 18.8 mm; Inhibition zone (diameter) (Proteus inconstans [7]): 18.9 mm; Inhibition zone (diameter) [8]: 13.5 mm; Inhibition zone (diameter) (Escherichia coli NIHJ): 21.9 mm; Inhibition zone (diameter) ([9]; 1 mg/ml): 26.2 mm; Inhibition zone (diameter) (Proteus vulgaria): 23.3 mm
CNC1C(OC)CC(N)C(OC2OC(C(C)N)CCC2N)C1O (centres unmarked) [KA-6606 VII]	2-10 pH	Insoluble	Insoluble	Easily soluble	–	–	–	–	–	–	–	–	Easily soluble	zone of inhibition at 1000 µg/mL (Serratia marcescens; [10]): 15.1 mm; Inhibition zone (diameter) (Klebsiella pneumoniae): 9.0 mm; Inhibition zone (diameter) (Proteus inconstans [7]): 9.0 mm; zone of inhibition at 1000 µg/mL ([8]; Staphylococcus aureus, 209P, read-out: Inhibition zone (diameter)): 9.3 mm; zone of inhibition at 1000 µg/mL (Escherichia coli NIHJ; Escherichia coli, read-out: Inhibition zone (diameter)): 17.5 mm; zone of inhibition at 1000 µg/mL ([9]; Bacillus subtilis, ATCC6633, 1 mg/ml, read-out: Inhibition zone (diameter)): 17.8 mm; zone of inhibition at 1000 µg/mL (Proteus vulgaria; [10]): 20.1 mm
CNC1C(O)CC(N)C(OC2OC(C(C)N)CCC2N)C1O (centres unmarked) [KA-6606 IX]	2-10 pH	Insoluble	Insoluble	Easily soluble	15.9	16	–	16.7	15.2	13.7	23.8	22.9	Easily soluble	Inhibition zone (diameter) (Proteus inconstans [5]): 9.4 mm
CNC1C(O)CC(N)C(OC2OC(C(C)N)CCC2N)C1O (centres unmarked) [KA-6606 XI]	2-10 pH	Insoluble	Insoluble	Easily soluble	–	–	–	–	–	–	–	–	Easily soluble	Inhibition zone (diameter) [1]: 16.6 mm; Inhibition zone (diameter) (Serratia marcescens NHL): 16.8 mm; Inhibition zone (diameter) (Proteus inconstans [5]): 19.0 mm; Inhibition zone (diameter) [2]: 18.0 mm; Inhibition zone (diameter) (Proteus vulgaris OX-107): 15.1 mm; Inhibition zone (diameter) [6]: 18.5 mm; Inhibition zone (diameter) [3]: 23.5 mm; Inhibition zone (diameter) [4]: 25.2 mm
